Results taken from patent US12178791B2, “Haloallylamine sulfone derivative inhibitors of lysyl oxidases and uses thereof” (Syntara Limited, priority 2018, dated 2024).
Structures can show the parent of a compound that is named as a salt.

Assays:
Assay type in all cases: biochemical
LOXL2 [1] = biological target: T1, LOXL2 (Homo sapiens (Human), UniProt Q9Y4K0); test: Jump dilution experiment, sustained inhibition of LOXL2; details: jump dilution after 40 min at 37 °C with 10× or 30× IC50; vs non-inhibited controls;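 also: 30× IC50 used only where needed so inhibitor exceeds enzyme concentration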
Protocol: (§1) Jump Dilution experiment: The assay was developed using a 96 well format and the starting enzyme concentration was set 100 times higher than for the inhibition studies. […] After the incubation, the mixture was diluted 50× in assay buffer, followed by a further 2× dilution in Amplex Red-horseradish peroxidase-putrescine reaction mix (same as per the inhibition studies) prior to the fluorescent measurement. Results were expressed in % recovery of the signal after a specified time by comparison with non-inhibited controls.

LOXL2 [2] = biological target: T1, LOXL2; test: LOXL2 inhibition, Amplex Red oxidation assay; details: 30 min preincubation at 37 °C, putrescine substrate
Text: (§2) Lysyl oxidase (LOX) is an extracellular copper dependent enzyme which oxidizes peptidyl lysine and hydroxylysine residues in collagen and lysine residues in elastin to produce peptidyl alpha-aminoadipic-delta-semialdehydes. […] There are five LOX family members; these are LOX, LOXL1, LOXL2, LOXL3 and LOXL4. LOX and LOXL family members can be acquired as recombinant active proteins from commercial sources, or extracted from animal tissues like bovine aorta, tendons, pig skin; or prepared from cell cultures. The inhibitory effects of the compounds of the present invention were tested against the given LOX-LOXL preparation using a method based on the detection of hydrogen peroxide with an Amplex Red oxidation assay (Zhou et al. A stable nonfluorescent derivative of resorufin for the fluorometric determination of trace hydrogen peroxide: applications in detecting the activity of phagocyte NADPH oxidase and other oxidases. Anal. Biochem. 1997; 253, 162-168). The assay was developed using either 384 or 96 well format. Briefly, in a standard black, clear bottom 384 well plate assay 25 μL of a dilution of any of the isoenzymes and orthologues in 1.2 M urea, 50 mM sodium borate buffer (pH 8.2) were added into each well in the presence of 1 μM mofegiline and 0.5 mM pargyline (to inhibit SSAO and MAO-B and MAO-A, respectively; not necessary if the enzyme is from a recombinant or purified form). Test compounds were dissolved in DMSO and tested in a Concentration Response Curve (CRC) with 11 data points, typically in the micromolar or nanomolar range after incubation with the enzyme for 30 min at 37° C. Twenty five μL of a reaction mixture containing twice the KM concentration of putrescine (Sigma Aldrich, e.g. 20 mM for LOX, or 10 mM for LOXL2 and LOXL3), 120 μM Amplex Red (Sigma Aldrich) and 1.5 U/mL horseradish peroxidase (Sigma Aldrich) prepared in 1.2 M urea, 50 mM sodium borate buffer (pH 8.2) were then added to the corresponding wells. The above volumes were doubled in the case of 96 wells plate. The fluorescence (RFU) was read every 2.5 min for 30 min at […] 37° C., excitation 565 nm and emission 590 (Optima; BMG labtech). The slope of the kinetics for each well was calculated using MARS data analysis software (BMG labtech) and this value was used to deduce the IC50 value (Dotmatics).

Bovine LOX = Bovine LOX (Bos taurus (Bovine), UniProt P33072); test: LOX inhibition, Amplex Red oxidation assay; details: 30 min preincubation at 37 °C, putrescine substrate
Text: as §2, with “Test compounds were dissolved in DMSO and tested in a Concentration Response Curve (CRC) with 11 data points, typically in the micromolar or nanomolar range after incubation with the enzyme for 30 min at 37° C.” left out

LOXL1 = LOXL1 (Homo sapiens (Human), UniProt Q08397); test: Jump dilution experiment, sustained inhibition of LOXL1; details: jump dilution after 40 min at 37 °C with 10× or 30× IC50; vs non-inhibited controls;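 also: 30× IC50 used only where needed so inhibitor exceeds enzyme concentration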
Protocol: as §1

Recombinant human MAO-B = Recombinant human MAO-B (Homo sapiens (Human), UniProt P27338); test: Inhibition of human recombinant MAO-B; details: benzylamine 100 μM
Protocol: The specificity of the compounds of this invention was tested by determining their ability to inhibit MAO-B activities in vitro. Recombinant human MAO-B (0.06 mg/mL; Sigma Aldrich) was used as source of MAO-B enzyme activities. The assay was performed in a similar way as for human SSAO/VAP-1 (Example 28) except, the substrate benzylamine was used at 100 μM.

[3] = biological target: Human recombinant SSAO/VAP-1 (Homo sapiens (Human), UniProt Q16853); test: Inhibition of human recombinant SSAO/VAP-1; details: 30 min preincubation at 37 °C, benzylamine 600 μM; read-out: SSAO/VAP-1 Activity IC50
Protocol: Human recombinant SSAO/VAP-1 amine oxidase activity was determined using the coupled colorimetric method as described for monoamine oxidase, copper-containing amine oxidases and related enzymes (Holt A. and Palcic M., A peroxidase-coupled continuous absorbance plate-reader assay for flavin monoamine oxidases, copper-containing amine oxidases and related enzymes. Nat Protoc 2006; 1: 2498-2505). Briefly, a cloned cDNA template corresponding to residues 34-763 of human SSAO/VAP-1, and incorporating a mouse Ig kappa (κ) signal sequence, N-terminal flag epitope tag and tobacco etch virus (TEV) cleavage site, was assembled in a mammalian expression vector (pLO-CMV) by Geneart AG. This vector containing human SSAO/VAP-1 residues was transfected into CHO-Kl glycosylation mutant cell line, Lec 8. A clone stably expressing human SSAO/VAP-1 was isolated and cultured in large scale. Active human SSAO/VAP-1 was purified and recovered using immunoaffinity chromatography. This was used as the source for SSAO/VAP-1 activity. A high-throughput colorimetric assay was developed using either 96 or 384 well format. Briefly, in a standard 96 well plate assay 50 μL of purified human SSAO/VAP-1 (0.25 μg/mL) in 0.1 M sodium phosphate buffer (pH 7.4) was added into each well. Test compounds were dissolved in DMSO and tested in a Concentration Response Curve (CRC) with 4-11 data points, typically in the micromolar or nanomolar range after incubation with human SSAO/VAP-1 for 30 min at 37° C. After 30 min incubation, 50 μL of the reaction mixture containing 600 μM benzylamine (Sigma Aldrich), 120 μM Amplex Red (Sigma Aldrich) and 1.5 U/mL horseradish peroxidase (Sigma Aldrich) prepared in 0.1 M sodium phosphate buffer (pH 7.4) were added to the corresponding well. The fluorescence unit (RFU) was read every 2.5 min for 30 min at 37° C. excitation 565 nm and emission 590 (Optima; BMG labtech). The slope of the kinetics for each well was calculated using MARS data analysis software (BMG labtech) and this value was used to deduce the IC50 value (Dotmatics).

T1 sequence (Q9Y4K0 26-774): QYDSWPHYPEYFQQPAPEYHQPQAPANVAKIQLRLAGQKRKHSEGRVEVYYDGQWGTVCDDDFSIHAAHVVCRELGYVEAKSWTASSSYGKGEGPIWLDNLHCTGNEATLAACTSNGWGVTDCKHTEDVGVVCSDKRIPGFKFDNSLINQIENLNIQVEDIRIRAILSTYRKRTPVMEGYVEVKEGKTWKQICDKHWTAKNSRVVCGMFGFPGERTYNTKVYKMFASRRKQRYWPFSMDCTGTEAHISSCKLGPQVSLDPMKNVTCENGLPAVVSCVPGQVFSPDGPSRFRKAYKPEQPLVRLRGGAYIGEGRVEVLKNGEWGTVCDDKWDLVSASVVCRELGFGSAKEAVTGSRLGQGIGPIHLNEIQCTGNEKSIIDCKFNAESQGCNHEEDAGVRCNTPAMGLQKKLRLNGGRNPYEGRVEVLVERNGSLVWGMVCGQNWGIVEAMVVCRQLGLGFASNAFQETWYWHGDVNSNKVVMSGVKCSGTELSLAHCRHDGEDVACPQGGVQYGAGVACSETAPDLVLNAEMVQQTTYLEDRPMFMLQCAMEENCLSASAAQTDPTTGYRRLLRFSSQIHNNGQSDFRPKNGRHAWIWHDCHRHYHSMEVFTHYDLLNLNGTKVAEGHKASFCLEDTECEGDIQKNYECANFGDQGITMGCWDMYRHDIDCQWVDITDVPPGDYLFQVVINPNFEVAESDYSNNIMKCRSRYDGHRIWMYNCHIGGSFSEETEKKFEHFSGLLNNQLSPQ
Chain of Recombinant human MAO-B (P27338 whole entry): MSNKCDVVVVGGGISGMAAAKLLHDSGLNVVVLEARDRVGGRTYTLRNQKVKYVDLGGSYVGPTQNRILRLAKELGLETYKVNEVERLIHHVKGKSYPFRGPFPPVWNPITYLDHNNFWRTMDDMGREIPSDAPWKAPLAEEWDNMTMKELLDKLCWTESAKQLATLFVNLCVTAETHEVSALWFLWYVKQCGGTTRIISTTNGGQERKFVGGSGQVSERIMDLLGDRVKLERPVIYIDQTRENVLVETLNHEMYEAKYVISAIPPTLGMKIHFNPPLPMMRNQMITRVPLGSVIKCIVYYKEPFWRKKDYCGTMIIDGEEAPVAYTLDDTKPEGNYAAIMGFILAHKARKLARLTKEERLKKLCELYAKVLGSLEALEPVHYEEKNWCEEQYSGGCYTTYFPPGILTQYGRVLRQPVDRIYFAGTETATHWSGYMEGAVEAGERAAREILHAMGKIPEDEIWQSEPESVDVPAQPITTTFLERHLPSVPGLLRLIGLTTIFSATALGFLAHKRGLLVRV
Chain of Human recombinant SSAO/VAP-1 (Q16853 34-763): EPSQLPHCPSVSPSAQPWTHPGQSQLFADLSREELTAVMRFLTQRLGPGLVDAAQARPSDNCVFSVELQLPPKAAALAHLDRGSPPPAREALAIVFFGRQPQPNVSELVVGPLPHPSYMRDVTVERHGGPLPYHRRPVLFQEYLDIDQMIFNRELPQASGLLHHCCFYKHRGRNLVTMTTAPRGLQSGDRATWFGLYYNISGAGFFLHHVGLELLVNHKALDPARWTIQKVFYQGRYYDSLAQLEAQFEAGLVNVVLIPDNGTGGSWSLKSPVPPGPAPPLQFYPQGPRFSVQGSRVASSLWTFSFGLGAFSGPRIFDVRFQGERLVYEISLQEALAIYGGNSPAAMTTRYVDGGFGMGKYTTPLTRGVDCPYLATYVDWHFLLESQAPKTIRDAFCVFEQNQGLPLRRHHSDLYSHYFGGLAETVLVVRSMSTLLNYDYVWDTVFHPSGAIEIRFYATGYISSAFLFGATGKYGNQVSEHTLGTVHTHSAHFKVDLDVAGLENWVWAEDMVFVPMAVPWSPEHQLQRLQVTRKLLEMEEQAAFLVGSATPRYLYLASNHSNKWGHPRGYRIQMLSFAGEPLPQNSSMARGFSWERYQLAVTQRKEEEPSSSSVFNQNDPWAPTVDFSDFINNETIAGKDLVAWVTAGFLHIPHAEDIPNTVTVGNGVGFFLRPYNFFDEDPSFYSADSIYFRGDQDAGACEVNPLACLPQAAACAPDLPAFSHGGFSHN
Chain of Bovine LOX (P33072 170-418): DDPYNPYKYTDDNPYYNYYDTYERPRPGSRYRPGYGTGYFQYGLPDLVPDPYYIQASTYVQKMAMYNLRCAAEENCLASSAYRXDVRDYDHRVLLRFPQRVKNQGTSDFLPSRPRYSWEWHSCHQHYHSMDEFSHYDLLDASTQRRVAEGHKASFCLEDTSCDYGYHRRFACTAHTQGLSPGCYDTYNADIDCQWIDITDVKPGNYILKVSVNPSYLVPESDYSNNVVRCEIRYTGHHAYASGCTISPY
Chain of LOXL1 (Q08397 96-574, species assumed): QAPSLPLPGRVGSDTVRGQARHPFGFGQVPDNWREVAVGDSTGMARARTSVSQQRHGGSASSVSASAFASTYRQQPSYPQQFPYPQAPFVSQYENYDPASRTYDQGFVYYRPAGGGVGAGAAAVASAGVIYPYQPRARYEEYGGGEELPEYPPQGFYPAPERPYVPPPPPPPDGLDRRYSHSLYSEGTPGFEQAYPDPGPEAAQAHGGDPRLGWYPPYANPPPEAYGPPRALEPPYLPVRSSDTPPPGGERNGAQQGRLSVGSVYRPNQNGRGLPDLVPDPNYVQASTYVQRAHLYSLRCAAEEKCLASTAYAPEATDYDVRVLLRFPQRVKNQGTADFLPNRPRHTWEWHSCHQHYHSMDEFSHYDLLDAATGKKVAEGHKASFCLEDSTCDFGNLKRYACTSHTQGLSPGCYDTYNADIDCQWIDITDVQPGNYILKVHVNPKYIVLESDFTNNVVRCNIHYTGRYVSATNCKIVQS

| Compound | LOXL2 - Recovery of activity. (%) (LOXL2 [1]) | IC50 (LOXL2 [2]) | IC50 (Bovine LOX) | LOXL1 - Recovery of activity. (%) (LOXL1) | IC50 (Recombinant human MAO-B) | IC50 [3] |
| --- | --- | --- | --- | --- | --- | --- |
| CN(C)S(=O)(=O)c1ccc(Oc2cccc(S(=O)(=O)C/C(F)=C/CN)c2)cc1 [Compound 16, (Z)-4-(3-(4-amino-2-fluorobut-2-enylsulfonyl)phenoxy)-N,N-dimethylbenzenesulfonamide hydrochloride] | 14.4% | < 1 µM | < 1 µM |  |  |  |
| NC/C=C(\F)CS(=O)(=O)c1cccc(C(=O)NC23CC4CC(CC(C4)C2)C3)c1 [Compound 13, N-(adamantan-1-yl)-3-(((Z)-4-amino-2-fluorobut-2-en-1-yl)sulfonyl)benzamide hydrochloride] | 8.9% | < 10 µM | < 10 µM | 3.5% | < 10 µM | > 30 µM |
| CN(C)S(=O)(=O)c1ccc(COc2cccc(S(=O)(=O)C/C(F)=C/CN)c2)cc1 [Compound 9, (Z)-4-((3-((4-amino-2-fluorobut-2-en-1-yl)sulfonyl)phenoxy)methyl)-N,N-dimethylbenzenesulfonamide hydrochloride] | 15.1% | < 1 µM | < 1 µM | 4.4% | < 10 µM | > 30 µM |
| CN(C)S(=O)(=O)c1cccc(Oc2ccccc2S(=O)(=O)C/C(F)=C/CN)c1 [Compound 18, (Z)-3-(2-(4-amino-2-fluorobut-2-enylsulfonyl)phenoxy)-N,N-dimethylbenzenesulfonamide hydrochloride] | 6.9% | < 1 µM | < 1 µM |  |  |  |
| CN(C)S(=O)(=O)c1ccc(Oc2ccccc2S(=O)(=O)C/C(F)=C/CN)cc1 [Compound 6, (Z)-4-(2-((4-amino-2-fluorobut-2-en-1-yl)sulfonyl)phenoxy)-N,N-dimethylbenzenesulfonamide hydrochloride] | 10.4% | < 1 µM | < 10 µM | 2.5% | > 30 µM | > 30 µM |
| NC/C=C(\F)CS(=O)(=O)c1ccc(C(=O)NC23CC4CC(CC(C4)C2)C3)cc1 [Compound 4, N-(adamantan-1-yl)-4-(((Z)-4-amino-2-fluorobut-2-en-1-yl)sulfonyl)benzamide hydrochloride] | 21.2% | < 10 µM | < 10 µM | 16.7% | < 10 µM | > 30 µM |
| CN(C)S(=O)(=O)c1cccc(Oc2cccc(S(=O)(=O)C/C(F)=C/CN)c2)c1 [Compound 17, (Z)-3-(3-(4-amino-2-fluorobut-2-enylsulfonyl)phenoxy)-N,N-dimethylbenzenesulfonamide hydrochloride] | 5.3% | < 1 µM | < 10 µM |  |  |  |
| NC/C=C(\F)CS(=O)(=O)c1ccccc1C(=O)NC12CC3CC(CC(C3)C1)C2 [Compound 12, N-(adamantan-1-yl)-2-(((Z)-4-amino-2-fluorobut-2-en-1-yl)sulfonyl)benzamide hydrochloride] | 9.3% | < 1 µM | < 10 µM | 2.6% | > 30 µM | > 30 µM |
| CN(C)S(=O)(=O)c1ccc(COc2ccc(S(=O)(=O)C/C(F)=C/CN)cc2)cc1 [Compound 10, (Z)-4-((4-((4-amino-2-fluorobut-2-en-1-yl)sulfonyl)phenoxy)methyl)-N,N-dimethylbenzenesulfonamide hydrochloride] | 15.2% | < 10 µM | < 10 µM |  | > 30 µM | > 30 µM |
| CN(C)S(=O)(=O)c1ccc(COc2ccccc2S(=O)(=O)C/C(F)=C/CN)cc1 [Compound 5, (Z)-4-((2-((4-amino-2-fluorobut-2-en-1-yl)sulfonyl)phenoxy)methyl)-N,N-dimethylbenzenesulfonamide hydrochloride] | 10.0% | < 1 µM | < 1 µM | 3.6% | > 30 µM | > 30 µM |
